From patent publication US9556179B2 (BRISTOL-MYERS SQUIBB COMPANY, priority 2012, dated 2017)

Key:
CK1δ = CK1δ (Homo sapiens (Human), UniProt P48730); assay: CK1δ kinase assay (Caliper LABCHIP electrophoretic separation of fluoresceinated peptide substrate and product); type: biochemical; details: 200 pM enzyme, 50 μM ATP, 22 hours at room temperature
Method in brief: (§1)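 Reactions ran 22 hours at room temperature and were stopped with EDTA. Phosphorylated product and unphosphorylated substrate were then separated electrophoretically. Compounds were tested at eleven concentrations, and IC50 values came from non-linear regression.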

CK1ε = CK1ε (Homo sapiens (Human), UniProt P49674); assay: CK1ε kinase assay (Caliper LABCHIP electrophoretic separation of fluoresceinated peptide substrate and product); type: biochemical; details: 200 pM enzyme, 50 μM ATP, 22 hours at room temperature
Method in brief: as §1

Chain of CK1ε (P49674 whole entry): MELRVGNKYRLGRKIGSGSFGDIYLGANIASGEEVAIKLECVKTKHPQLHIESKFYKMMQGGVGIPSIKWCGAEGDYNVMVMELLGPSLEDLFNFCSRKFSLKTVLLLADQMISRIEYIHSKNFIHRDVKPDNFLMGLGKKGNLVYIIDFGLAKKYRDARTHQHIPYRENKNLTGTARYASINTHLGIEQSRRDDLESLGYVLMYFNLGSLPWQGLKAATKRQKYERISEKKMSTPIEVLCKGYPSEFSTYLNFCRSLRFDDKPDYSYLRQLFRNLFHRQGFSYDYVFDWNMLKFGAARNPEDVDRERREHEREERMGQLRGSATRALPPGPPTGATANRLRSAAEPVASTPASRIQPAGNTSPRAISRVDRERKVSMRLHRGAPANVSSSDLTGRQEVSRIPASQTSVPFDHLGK
Chain of CK1δ (P48730 whole entry): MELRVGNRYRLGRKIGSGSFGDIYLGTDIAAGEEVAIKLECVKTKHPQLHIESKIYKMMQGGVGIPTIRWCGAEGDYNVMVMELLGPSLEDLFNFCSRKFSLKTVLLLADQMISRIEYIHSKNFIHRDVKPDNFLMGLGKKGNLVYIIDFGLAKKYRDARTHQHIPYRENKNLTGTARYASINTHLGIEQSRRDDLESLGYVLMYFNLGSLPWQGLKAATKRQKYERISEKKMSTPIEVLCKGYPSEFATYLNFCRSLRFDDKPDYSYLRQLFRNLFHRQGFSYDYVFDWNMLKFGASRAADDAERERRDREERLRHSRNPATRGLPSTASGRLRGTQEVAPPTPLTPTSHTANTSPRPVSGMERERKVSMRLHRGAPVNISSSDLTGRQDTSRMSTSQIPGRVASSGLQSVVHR

| IC50 (CK1δ) | IC50 (CK1ε) | Compound |
| --- | --- | --- |
| 0.417 nM | 2.91 nM | Cn1cnc(-c2ccc(F)cc2)c1-c1ccc2nc(NC(=O)c3ccnc(F)c3)cn2n1 [Compound 231, 2-fluoro-N-(6-(4-(4-fluorophenyl)-1-methyl-1H-imidazol-5-yl)imidazo[1,2-b]pyridazin-2-yl) isonicotinamide] |
| 0.362 nM | 1.4 nM | NS(=O)(=O)CCCn1cnc(-c2ccc(F)cc2)c1-c1ccc2nc(NC(=O)c3ccnc(F)c3)cn2n1 [Compound 241] |
| 2.16 nM | 12 nM | O=C(Nc1cn2nc(-c3c(-c4cccc(Cl)c4)ncn3CC(F)F)ccc2n1)c1ccnc(F)c1 [Compound 242, N-(6-(4-(3-chlorophenyl)-1-(2,2-difluoroethyl)-1H-imidazol-5-yl)imidazo[1,2-b]pyridazin-2-yl)-2-fluoroisonicotinamide] |
| 0.652 nM | 5.96 nM | O=C(Nc1cn2nc(-c3c(-c4ccccc4)ncn3CC(F)F)ccc2n1)c1ccnc(F)c1 [Compound 243, N-(6-(1-(2,2-difluoroethyl)-4-phenyl-1H-imidazol-5-yl)imidazo[1,2-b]pyridazin-2-yl)-2-fluoroisonicotinamide] |
| 0.769 nM | 5.96 nM | O=C(Nc1cn2nc(-c3c(-c4ccccc4F)ncn3CC(F)F)ccc2n1)c1ccnc(F)c1 [Compound 246, N-(6-(1,(2,2-difluoroethyl)-4-(2-fluorophenyl)-1H-imidazol-5-yl)imidazo[1,2-b]pyridazin-2-yl)-2-fluoroisonicotinamide] |
| 0.371 nM | 1.1 nM | O=C(Nc1cn2nc(-c3c(-c4ccc(F)cc4)ncn3CC3CC(F)(F)C3)ccc2n1)c1ccnc(F)c1 [Compound 249, N-(6-(1-((3,3-difluorocyclobutyl)methyl)-4-(4-fluorophenyl)-1H-imidazol-5-yl)imidazo[1,2-b]pyridazin-2-yl)-2-fluoroiso-nicotinamide] |
| 1.15 nM | 18 nM | Cn1cnc(Cn2cnc(-c3ccc(F)cc3)c2-c2ccc3nc(NC(=O)c4ccnc(F)c4)cn3n2)c1 [Compound 253, 2-fluoro-N-(6-(4-(4-fluorophenyl)-1-((1-methyl-1H-imidazol-4-yl)methyl)-1H-imidazol-5-yl)imidazo[1,2-b]pyridazin-2-yl) isonicotinamide] |
| 10.2 nM | 230 nM | CC(C)(C)C1CCC(n2cnc(-c3ccc(F)cc3)c2-c2ccc3nc(NC(=O)c4ccnc(F)c4)cn3n2)CC1 (stereo not shown) [Compound 256, N-(6-(1-(4-tert-butylcyclohexyl)-4-(4-fluorophenyl)-1H-imidazol-5-yl)imidazo[1,2-b]pyridazin-2-yl)-2-fluoroisonicotinamide] |

Second part, the molecule before the results:

| Compound | IC50 (CK1δ) | IC50 (CK1ε) |
| --- | --- | --- |
| CCCn1cnc(-c2ccc(F)cc2)c1-c1ccc2nc(NC(=O)c3ccnc(F)c3)cn2n1 [Compound 229, 2-Fluoro-N-(6-(4-(4-fluorophenyl)-1-propyl-1H-imidazol-5-yl)imidazo[1,2-b]pyridazin-2-yl)isonicotinamide] | 0.474 nM | 2.57 nM |
| O=C(Nc1cn2nc(-c3c(-c4ccc(F)cc4)ncn3CCO)ccc2n1)c1ccnc(F)c1 [Compound 230, 2-fluoro-N-(6-(4-(4-fluorophenyl)-1-(2-hydroxyethyl)-1H-imidazol-5-yl)imidazo[1,2-b]pyridazin-2-yl)isonicotinamide] | 0.452 nM | 3.38 nM |
| CCn1cnc(-c2ccc(F)cc2)c1-c1ccc2nc(NC(=O)c3ccnc(F)c3)cn2n1 [Compound 232, N-(6-(1-ethyl-4-(4-fluorophenyl)-1H-imidazol-5-yl)imidazo[1,2-b]pyridazin-2-yl)-2-fluoroiso-nicotinamide] | 0.322 nM | 1.54 nM |
| COCCn1cnc(-c2ccc(F)cc2)c1-c1ccc2nc(NC(=O)c3ccnc(F)c3)cn2n1 [Compound 233, 2-fluoro-N-(6-(4-(4-fluorophenyl)-1-(2-methoxyethyl)-1H-imidazol-5-yl)imidazo[1,2-b]pyridazin-2-yl)isonicotinamide] | 0.306 nM | 1.17 nM |
| O=C(Nc1cn2nc(-c3c(-c4ccc(F)cc4)ncn3CCOCCO)ccc2n1)c1ccnc(F)c1 [Compound 234] | 0.456 nM | 2.31 nM |
| O=C(Nc1cn2nc(-c3c(-c4ccc(F)cc4)ncn3CC(F)(F)F)ccc2n1)c1ccnc(F)c1 [Compound 236] | 0.266 nM | 1.15 nM |
| O=C(Nc1cn2nc(-c3c(-c4ccc(F)cc4)ncn3CC(F)F)ccc2n1)c1ccnc(F)c1 [Compound 237, N-(6-(1-(2,2-difluoroethyl)-4-(4-fluorophenyl)-1H-imidazol-5-yl)imidazo[1,2-b]pyridazin-2-yl)-2-fluoroisonicotinamide] | 0.365 nM | 1.35 nM |
| O=C(Nc1cn2nc(-c3c(-c4cccc(F)c4)ncn3CC(F)F)ccc2n1)c1ccnc(F)c1 [Compound 245, N-(6-(1-(2,2-difluoroethyl)-4-(3-fluorophenyl)-1H-imidazol-5-yl)imidazo[1,2-b]pyridazin-2-yl)-2-fluoroisonicotinamide] | 0.899 nM | 7.43 nM |
| O=C(Nc1cn2nc(-c3c(-c4ccc(F)cc4)ncn3CC(=O)N3CCCC3)ccc2n1)c1ccnc(F)c1 [Compound 250, 2-fluoro-N-(6-(4-(4-fluorophenyl)-1-(2-oxo-2-(1-pyrrolidinyl)ethyl)-1H-imidazol-5-yl)imidazo[1,2-b]pyridazin-2-yl)isonicotinamide] | 0.292 nM | 8.38 nM |
| O=C(Nc1cn2nc(-c3c(-c4ccc(F)cc4)ncn3CCN3CCC(F)(F)CC3)ccc2n1)c1ccnc(F)c1 [Compound 251, N-(6-(1-(2-(4,4-difluoro-1-piperi-dinyl)ethyl)-4-(4-fluorophenyl)-1H-imidazol-5-yl)imidazo[1,2-b]pyridazin-2-yl)-2-fluoroiso-nicotinamide] | 0.385 nM | 5.38 nM |
| O=C(Nc1cn2nc(-c3c(-c4ccc(F)cc4)ncn3CCOCC(F)(F)F)ccc2n1)c1ccnc(F)c1 [Compound 252, 2-fluoro-N-(6-(4-(4-fluorophenyl)-1-(2-(2,2,2-trifluoroethoxy)ethyl)-1H-imidazol-5-yl)imidazo[1,2-b]pyridazin-2-yl)isonicotinamide] | 0.347 nM | 2.51 nM |
| O=C(Nc1cn2nc(-c3c(-c4ccc(F)cc4)ncn3CCn3cccn3)ccc2n1)c1ccnc(F)c1 [Compound 254, 2-fluoro-N-(6-(4-(4-fluorophenyl)-1-(2-(1H-pyrazol-1-yl)ethyl)-1H-imidazol-5-yl)imidazo[1,2-b]pyridazin-2-yl)isonicotinamide] | 1.12 nM | 18.7 nM |
| O=C(Nc1cn2nc(-c3c(-c4ccc(F)cc4)ncn3CCc3c[nH]cn3)ccc2n1)c1ccnc(F)c1 [Compound 255, 2-fluoro-N-(6-(4-(4-fluorophenyl)-1-(2-(1H-imidazol-4-yl)ethyl)-1H-imidazol-5-yl)imidazo[1,2-b]pyridazin-2-yl)isonicotinamide] | 0.386 nM | 2.45 nM |
| O=C(Nc1cn2nc(-c3c(-c4ccc(F)cc4)ncn3C3CCCCC3)ccc2n1)c1ccnc(F)c1 [Compound 257, N-(6-(1-cyclohexyl-4-(4-fluoro-phenyl)-1H-imidazol-5-yl)imidazo[1,2-b]pyridazin-2-yl)-2-fluoroisonicotinamide] | 0.325 nM | 2.29 nM |
| CC(C)(C)Cn1cnc(-c2ccc(F)cc2)c1-c1ccc2nc(NC(=O)c3ccnc(F)c3)cn2n1 [Compound 258, N-(6-(1-(2,2-dimethylpropyl)-4-(4-fluorophenyl)-1H-imidazol-5-yl)imidazo[1,2-b]pyridazin-2-yl)-2-fluoroisonicotinamide] | 0.393 nM | 6.56 nM |
